For 28 compounds, Ki and melting point results are on record in patent US7214673B2, “Piperazine substituted aryl benzodiazepines and their use as dopamine receptor antagonists for the treatment of psychotic disorders” (Eli Lilly and Company, priority 2002, dated 2007).

Counter-ions that a name gives are not always drawn.

In data set [1] the target is T1, Dopamine D2 receptor (Homo sapiens, UniProt P14416).
T1 construct: purchased Receptor Biology (now owned by NEN) RBHD2CM
The experiment in a line: Dopamine D2 receptor binding assay ([125I]iodospiperone). The following applies: [125I]iodospiperone 0.1 nM, D2 receptor membranes, 2 hours at room temperature; read-out: Relative D2 Receptor Binding Affinity Ki. The procedure: Serotonin 5-HT6 and Dopamine D2 Binding Assay Protocol
The assay buffers used are 50 mM Tris-HCl pH 7.4, 120 mM NaCl, 5 mM KCl, 5 mM MgCl2, 1 mM EDTA for the Dopamine D2s receptor binding assay. […] The membranes used are from Receptor Biology (now owned by NEN), Cat #RBHD2CM for the D2 receptor.
Compounds are obtained as 10 mM stocks in 100% DMSO. They are diluted to 1 mM in 100% DMSO by adding 180 μL DMSO to 20 μL of stock in 96 well plates using a multidrop. […] This is done using a TECAN robot.
The radioligand is diluted in assay buffer to provide 0.1 nM for the D2 assay. Each vial of membranes is diluted up to 92 mL in assay buffer. The final assay volume is 250 μL consisting of 210 μl of diluted membranes, 20 μL of compound or 10% DMSO for total binding, and 20 μL of diluted radioligand. The compounds are transferred from drug dilution plates into coming 96 well assay plates using a 96 well Multimek pipettor. Radioligand and membranes are added to assay plates using multidrop pipettors. Non-specific binding is determined in wells containing a final concentration of 5 μM haloperidol. The final drug concentration range in half logs is from 10 μM down to 0.1 nM.
After addition of drug, membrane, and ligand, the plates are incubated for 2 hours at room temperature. During this time 96 well Millipore filter plates (MAFBNOB50) are soaked for a least 30 minutes with 200 μL per well of 0.5% polyethyleneimine.
The 0.5% PEI is removed from filterplate wells using a TiterTek MAP aspirator and 200 μL of the incubation mixture is transferred from the incubation plate to the filterplate after mixing. This transfer is done using the 96 tip Mutimek pipettor. After transfer to the filterplate filterplates are extracted and ished twice with 220 μL per well of cold buffer on the MAP aspirator. The peel away bottoms are removed from the filterplates and 60 μL per well of microscint 20 scintillation fluid is added per well using a multidrop. Plates are placed into suitable holders and are left at room temperature for 3 hours and are counted for ^3H in either a Wallac Microbeta counter or on a Packard Topcount.

T1 sequence (P14416 1-414 isoform P14416-2): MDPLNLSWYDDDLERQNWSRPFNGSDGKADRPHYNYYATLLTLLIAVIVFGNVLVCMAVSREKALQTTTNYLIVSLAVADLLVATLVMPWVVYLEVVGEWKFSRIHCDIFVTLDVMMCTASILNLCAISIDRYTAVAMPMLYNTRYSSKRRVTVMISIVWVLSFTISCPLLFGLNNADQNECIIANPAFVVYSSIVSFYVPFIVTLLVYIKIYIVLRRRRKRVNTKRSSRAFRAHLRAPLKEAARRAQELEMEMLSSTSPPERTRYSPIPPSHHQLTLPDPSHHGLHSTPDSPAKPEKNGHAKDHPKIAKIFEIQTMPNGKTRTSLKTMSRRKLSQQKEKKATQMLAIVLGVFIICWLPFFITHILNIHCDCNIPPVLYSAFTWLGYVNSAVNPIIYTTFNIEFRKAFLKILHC

By Ki is commonly meant a measure of affinity in units of concentration, obtained from inhibition or displacement. The term melting point denotes the temperature, or range, at which the solid turns liquid. Turning to `Cc1cc2c(s1)Nc1ccccc1N=C2N1CCN(C)[C@@H](CCc2ccccc2)C1` [Example 90, 2-Methyl-10-(4-methyl-3-(S)-phenethyl-piperazin-1-yl)-4H-3-thia-4,9-diaza-benzo[f]azulene], the melting point lay in the range of 87 to 91 °C. Besides, in data set [1], the Ki was 10 to 100 nM.

Regarding `Cc1cc2c(s1)Nc1ccccc1N=C2N1CCN[C@@H](Cc2ccccc2)C1` [Example 61], the melting point was in the range of 169 to 170 °C. Besides, in data set [1], the inhibitory constant (Ki) is below 10 nM.

For the compound `Cc1cc2c(s1)Nc1ccccc1N=C2N1CCN(C)[C@@H](Cc2ccccc2)C1` [Example 92], the melting point was 94 to 97 °C. The inhibition constant (Ki) in data set [1] lay in the range of 10 to 100 nM. In the same order, the values of `COc1ccc(C[C@H]2CN(C3=Nc4ccccc4Nc4sc(C)cc43)CCN2)cc1` [Example 77] are 85 to 98 °C and 10 to 100 nM.

Take `Cc1cc2c(s1)Nc1ccccc1N=C2N1CCN[C@@H](CCc2ccccc2)C1` [Example 59, 2-Methyl-10-(S)-(3-phenethyl-piperazin-1-yl)-4H-3-thia-4,9-diazabenzo[f]azulene]: the melting point was in the range of 75 to 84 °C. Also, in data set [1], the inhibitory constant (Ki) lay within 10 to 100 nM.

In turn, `Cc1cc2c(s1)Nc1ccccc1N=C2N1CCN[C@@H](Cc2cccc(F)c2)C1` [Example 72] yielded a melting point of 87 to 99 °C. In addition, the Ki in data set [1] is 10 to 100 nM.

`Cc1cc2c(s1)Nc1ccccc1N=C2N1CCN[C@@H](Cc2ccc(Cl)cc2)C1` [Example 85] registered a melting point of 91 to 108 °C. The Ki in data set [1] is below 10 nM. In the same order, the values of `COc1ccccc1C[C@H]1CN(C2=Nc3ccccc3Nc3sc(C)cc32)CCN1` [Example 75] are 95 to 109 °C and below 10 nM.

In turn, `Cc1cc2c(s1)Nc1ccccc1N=C2N1CCN[C@@H](Cc2cccs2)C1` [Example 80] returned a melting point of 95 to 104 °C. Further, in data set [1], the inhibitory constant (Ki) is below 10 nM. In turn, `Cc1cc2c(s1)Nc1ccccc1N=C2N1CCN[C@@H](Cc2ccsc2)C1` [Example 212] registered a melting point of 82 to 94 °C. The Ki in data set [1] is below 10 nM. Taken in the same sequence, the figures for `COc1cccc(C[C@H]2CN(C3=Nc4ccccc4Nc4sc(C)cc43)CCN2)c1` [Example 76] were 96 to 109 °C and below 10 nM. For `Cc1cc2c(s1)Nc1ccccc1N=C2N1CCN(C)[C@@H](CCc2ccccc2F)C1` [Example 184, 10-((S)-3-(2-(2-Fluoro-phenyl)-ethyl)-4-methyl-piperazin-1-yl)-2-methyl-4H-3-thia-4,9-diaza-benzo[f]azulene dihydrochloride], in data set [1], the inhibition constant (Ki) is 10 to 100 nM.

On to `CC(C)n1nc2c(n1)C(N1CCN(C)[C@@H](CCc3ccccc3)C1)=Nc1ccccc1N2` [Example 595, (S)-2-Isopropyl-10-(4-methyl-3-phenethyl-piperazin-1-yl)-2,4-dihydro-1,2,3,4,9-pentaaza-benzo[f]azulene dihydrochloride hemihydrate], for which the inhibition constant (Ki) in data set [1] lay within 10 to 100 nM. The same measure, in the same setting: with `COc1ccc(CC[C@H]2CN(C3=Nc4ccccc4Nc4sc(C)cc43)CCN2C)cc1` [Example 185, 10-((S)-3-(2-(4-Methoxy-phenyl)-ethyl)-4-methyl-piperazin-1-yl)-2-methyl-4H-3-thia-4,9-diaza-benzo[f]azulene dihydrochloride] the figure was 10 to 100 nM.

In turn, `Cc1cc2c(s1)Nc1ccccc1N=C2N1CCN[C@@H](Cc2ccccc2F)C1` [Example 71] yielded a melting point of 84 to 102 °C. Further, the Ki in data set [1] is below 10 nM.

As to `Cc1cccc(C[C@H]2CN(C3=Nc4ccccc4Nc4sc(C)cc43)CCN2C)c1` [Example 103], the melting point lay in the range of 67 to 83 °C. Moreover, the Ki in data set [1] lay in the range of 10 to 100 nM. As to `COc1ccccc1CC[C@H]1CN(C2=Nc3ccccc3Nc3sc(C)cc32)CCN1C` [Example 187, 10-((S)-3-(2-(2-Methoxy-phenyl)-ethyl)-4-methyl-piperazin-1-yl)-2-methyl-4H-3-thia-4,9-diaza-benzo[f]azulene dihydrochloride], the Ki in data set [1] is 10 to 100 nM.

In the case of `Cc1cc2c(s1)Nc1ccccc1N=C2N1CCN(C)[C@@H](Cc2ccsc2)C1` [Example 219], the melting point lay within 58 to 72 °C. In addition, the Ki in data set [1] is 10 to 100 nM. Taken in the same sequence, the figures for `COc1ccccc1C[C@H]1CN(C2=Nc3ccccc3Nc3sc(C)cc32)CCN1C` [Example 109] were 81 to 93 °C and below 10 nM. In the same order, the values of `Cc1cccc(C[C@H]2CN(C3=Nc4ccccc4Nc4sc(C)cc43)CCN2)c1` [Example 70] are 80 to 97 °C and below 10 nM. For the compound `Cc1cc2c(s1)Nc1ccccc1N=C2N1CCN[C@@H](CCc2ccc(F)cc2)C1` [Example 176, 10-((S)-3-(2-(4-Fluorophenyl)-ethyl)-piperazin-1-yl)-2-methyl-4H-3-thia-4,9-diaza-benzo[f]azulene dihydrochloride], in data set [1], the inhibition constant Ki is 10 to 100 nM. On the same count and under the same terms, next, `Cc1cc2c(s1)Nc1ccccc1N=C2N1CCN[C@@H](Cc2cccc(Cl)c2)C1` [Example 87]: 10 to 100 nM; `Cc1nc2c(s1)Nc1ccccc1N=C2N1CCN[C@@H](CCc2ccccc2)C1` [Example 460, (S)-2-Methyl-10-(3-phenethyl-piperazin-1-yl)-4H-3-thia-1,4,9-triaza-benzo[f]azulene dihydrochloride hemihydrate]: below 10 nM.

Turning to `Cc1ccc(C[C@H]2CN(C3=Nc4ccccc4Nc4sc(C)cc43)CCN2)cc1` [Example 69], the melting point lay in the range of 92 to 101 °C. In data set [1], the Ki lay within 10 to 100 nM. Turning to `CC(C)n1nc2c(n1)C(N1CCN[C@@H](CCc3ccccc3)C1)=Nc1ccccc1N2` [Example 594, (S)-2-Isopropyl-10-(3-phenethyl-piperazin-1-yl)-2,4-dihydro-1,2,3,4.9-pentaaza-benzo[f]azulene dihydrochloride hemihydrate], the Ki in data set [1] is below 10 nM.

`Cc1cc2c(s1)Nc1ccccc1N=C2N1CCN(C)[C@@H](CCc2ccc(F)cc2)C1` [Example 182, 10-((S)-3-(2-(4-Fluoro-phenyl)-ethyl]-4-methyl-piperazin-1-yl)-2-methyl-4H-3-thia-4,9-diaza-benzo[f]azulene dihydrochloride]: the Ki in data set [1] was in the range of 10 to 100 nM.

Turning to `Cc1cc2c(s1)Nc1ccccc1N=C2N1CCN(C)[C@@H](CCc2cccc(F)c2)C1` [Example 183, 10-((S)-3-(2-(3-Fluoro-phenyl)-ethyl)-4-methyl-piperazin-1-yl)-2-methyl-4H-3-thia-4,9-diaza-benzo[f]azulene dihydrochloride], in data set [1], the Ki was 10 to 100 nM.

As to `COc1ccccc1CC[C@H]1CN(C2=Nc3ccccc3Nc3sc(C)cc32)CCN1` [Example 181, 10-((S)-3-(2-(2-Methoxy-phenyl)-ethyl)-piperazin-1-yl)-2-methyl-4H-3-thia-4,9-diaza-benzo[f]azulene dihydrochloride], the Ki in data set [1] was in the range of 10 to 100 nM.
